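Five concentrations, 48 hours, 96-well plates. GI50 is the concentration that inhibits growth by half. TGI: total growth inhibition.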
Tests used:
Test in all cases: DTP human tumour cell line panel, 48 h
[1] = tested on: NCI-H460 lung
[2] = tested on: DU-145 prostate
[3] = tested on: SK-MEL-5 melanoma
[4] = tested on: MALME-3M melanoma
[5] = tested on: UACC-257 melanoma
[6] = tested on: T-47D breast
[7] = tested on: HCT-116 colon
[8] = tested on: MDA-MB-435
[9] = tested on: A498 renal
[10] = tested on: OVCAR-8 ovarian
[11] = tested on: SW-620 colon
[12] = tested on: HOP-92 NSCLC
[13] = tested on: SN12C renal
[14] = tested on: SK-OV-3 ovarian
[15] = tested on: SR leukemia
[16] = tested on: A549 NSCLC
[17] = tested on: HL-60(TB) leukemia
[18] = tested on: ACHN renal
[19] = tested on: SNB-19 CNS
[20] = tested on: KM12 colon
[21] = tested on: OVCAR-3 ovarian
[22] = tested on: MDA-MB-231 breast
[23] = tested on: M14 melanoma
[24] = tested on: SF-295 CNS
[25] = tested on: LOX IMVI melanoma
[26] = tested on: IGROV1 ovarian
[27] = tested on: MOLT-4 leukemia
[28] = tested on: RPMI-8226 leukemia
[29] = tested on: NCI-H23 lung
[30] = tested on: TK-10 renal
[31] = tested on: SF-539 CNS
[32] = tested on: 786-0 renal
[33] = tested on: NCI-H522 lung
[34] = tested on: K-562 leukemia
[35] = tested on: UACC-62 melanoma
[36] = tested on: SK-MEL-2 melanoma
[37] = tested on: SNB-75 CNS
[38] = tested on: CAKI-1 renal
[39] = tested on: HCT-15 colon
[40] = tested on: OVCAR-5 ovarian
[41] = tested on: SK-MEL-28 melanoma
[42] = tested on: U251 CNS
[43] = tested on: CCRF-CEM leukemia
[44] = tested on: HOP-62 NSCLC
[45] = tested on: COLO 205 colon
[46] = tested on: MCF7 breast
[47] = tested on: EKVX NSCLC
[48] = tested on: BT-549 breast
[49] = tested on: NCI-H226 lung
[50] = tested on: UO-31 renal
[51] = tested on: OVCAR-4 ovarian
[52] = tested on: NCI/ADR-RES ovarian
[53] = tested on: PC-3 prostate
[54] = tested on: HS 578T breast
[55] = tested on: HT29 colon
[56] = tested on: HCC-2998 colon
[57] = tested on: SF-268 CNS

## CN1CCN(c2ccc(Nc3nc(NCCCNS(=O)(=O)c4ccccc4)c4sccc4n3)cc2)CC1
[1]
  GI50: 16.4 µM
  TGI: 32.9 µM
[2]
  GI50: 15.4 µM
  TGI: 28.7 µM
[3]
  GI50: 16.6 µM
  TGI: 30.6 µM
[4]
  GI50: 13.3 µM
  TGI: 26.2 µM
[5]
  GI50: 16.2 µM
  TGI: 32.8 µM
[6]
  GI50: 18.3 µM
  TGI: 46.5 µM
[7]
  GI50: 7.46 µM
  TGI: > 100 µM
[8]
  GI50: 14.2 µM
  TGI: 27.2 µM
[9]
  GI50: 21.9 µM
  TGI: 41.3 µM
[10]
  GI50: 15.5 µM
  TGI: 48.5 µM
[11]
  GI50: 12.4 µM
  TGI: 27.6 µM
[12]
  GI50: 12.3 µM
  TGI: 58.6 µM
[13]
  GI50: 14.8 µM
  TGI: 31.1 µM
[14]
  GI50: 29.6 µM
  TGI: 81.3 µM
[15]
  GI50: 2.83 µM
  TGI: > 100 µM
[16]
  GI50: 19.3 µM
  TGI: 48.8 µM
[17]
  GI50: 14.9 µM
  TGI: 53.6 µM
[18]
  GI50: 15.2 µM
  TGI: 28.5 µM
[19]
  GI50: 25.6 µM
  TGI: 67.7 µM
[20]
  GI50: 20.4 µM
  TGI: 65.7 µM
[21]
  GI50: 21.1 µM
  TGI: 55.6 µM
[22]
  GI50: 12.8 µM
  TGI: 30 µM
[23]
  GI50: 3.9 µM
  TGI: 14.3 µM
[24]
  GI50: 16 µM
  TGI: 30.2 µM
[25]
  GI50: 5.9 µM
  TGI: 20.2 µM
[26]
  GI50: 13.3 µM
  TGI: 27.3 µM
[27]
  GI50: 5.46 µM
  TGI: 46.6 µM
[28]
  GI50: 7.3 µM
  TGI: 55.4 µM
[29]
  GI50: 15.8 µM
  TGI: 31.6 µM
[30]
  GI50: 23.7 µM
  TGI: 48.6 µM
[31]
  GI50: 11.8 µM
  TGI: 24 µM
[32]
  GI50: 17.8 µM
  TGI: 43.2 µM
[33]
  GI50: 14.6 µM
  TGI: 30.3 µM
[34]
  GI50: 3.18 µM
  TGI: > 100 µM
[35]
  GI50: 12.9 µM
  TGI: 25.7 µM
[36]
  GI50: 17.5 µM
  TGI: 32.3 µM
[37]
  GI50: 10.3 µM
  TGI: 22 µM
[38]
  GI50: 16.4 µM
  TGI: 30 µM
[39]
  GI50: 3.93 µM
  TGI: 18.8 µM
[40]
  GI50: 16.6 µM
  TGI: 44.4 µM
[41]
  GI50: 13.5 µM
  TGI: 26.3 µM
[42]
  GI50: 7.64 µM
  TGI: 52.4 µM
[43]
  GI50: 30.2 µM
  TGI: > 100 µM
[44]
  GI50: 17 µM
  TGI: 33.2 µM
[45]
  GI50: 15.5 µM
  TGI: 31.4 µM
[46]
  GI50: 9.12 µM
  TGI: 21.5 µM
[47]
  GI50: 23.5 µM
  TGI: 64 µM
[48]
  GI50: 17.1 µM
  TGI: 37.4 µM
[49]
  GI50: 13.5 µM
  TGI: 26.8 µM
[50]
  GI50: 12.5 µM
  TGI: 25.5 µM
[51]
  GI50: 13.4 µM
  TGI: 48.6 µM
[52]
  GI50: 21.2 µM
  TGI: 54.8 µM
[53]
  GI50: 19.9 µM
  TGI: 77.4 µM
[54]
  GI50: 13.5 µM
  TGI: 38.5 µM
[55]
  GI50: 5.79 µM
  TGI: 33.2 µM
[56]
  GI50: 17.5 µM
  TGI: 35.6 µM
[57]
  GI50: 15.3 µM
  TGI: 63.1 µM

Reference: PubChem BioAssay (NCI)
